The values that follow come from PMC9969401, “Discovery of 2-(3-Benzamidopropanamido)thiazole-5-carboxylate Inhibitors of the Kinesin HSET (KIFC1) and the Development of Cellular Target Engagement Probes” (Journal of Medicinal Chemistry, 2023).

Where two headings read alike, the source gives them in different places. A value given as a limit tells only on which side of the number the result lay.

This experiment addresses T1, recombinant full-length HSET (Homo sapiens, UniProt Q9BW19).
T1 construct: 5 nM full-length human N-terminal His-tag HSET; His-tag (N)
T1 sequence (Q9BW19 1-673): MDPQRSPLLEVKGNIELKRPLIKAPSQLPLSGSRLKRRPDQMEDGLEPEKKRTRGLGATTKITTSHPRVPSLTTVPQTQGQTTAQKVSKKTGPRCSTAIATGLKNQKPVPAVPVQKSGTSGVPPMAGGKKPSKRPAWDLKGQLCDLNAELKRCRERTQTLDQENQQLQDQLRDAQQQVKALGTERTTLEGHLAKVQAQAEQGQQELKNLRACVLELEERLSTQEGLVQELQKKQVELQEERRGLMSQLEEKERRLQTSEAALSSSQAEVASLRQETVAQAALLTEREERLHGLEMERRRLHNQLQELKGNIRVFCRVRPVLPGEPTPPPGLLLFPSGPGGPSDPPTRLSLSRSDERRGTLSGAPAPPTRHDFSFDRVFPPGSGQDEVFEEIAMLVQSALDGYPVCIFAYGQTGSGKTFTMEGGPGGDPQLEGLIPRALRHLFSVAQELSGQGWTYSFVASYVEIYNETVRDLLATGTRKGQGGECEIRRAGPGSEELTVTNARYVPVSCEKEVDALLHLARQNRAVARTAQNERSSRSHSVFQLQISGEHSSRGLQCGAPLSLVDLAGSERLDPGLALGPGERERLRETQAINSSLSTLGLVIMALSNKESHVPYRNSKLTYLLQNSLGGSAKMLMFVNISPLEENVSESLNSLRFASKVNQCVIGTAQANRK
Nature of the experiment: ADP-Glo HSET assay (3 μM ATP), microtubule-stimulated ATPase. It is filed as biochemical. Particulars: for HSET inhibitory activity (in words): HSET ADP-Glo. The protocol: The HSET or Eg5 ATPase activity was measured using the ADP-Glo Kinase Assay kit (Promega, V9102). The assays were run using final concentrations of 5 nM full-length human N-terminal His-tag HSET or 4 nM GST-tagged Eg5 motor domain protein (Cytoskeleton, EG01) and an assay buffer containing 20 mM HEPES pH 6.8, 10 mM MgCl2, 0.25 mM EGTA, 0.4 mM Triton X-100, and 1 mM DTT. Preformed microtubules (Universal Biologicals Cambridge, bovine MT001-XL, or porcine MT002-XL), which were reconstituted in 15 mM PIPES pH 7, 1 mM MgCl2, and 20 μM paclitaxel, were present at a final assay concentration of 70 μg/mL. A reaction volume of 5 μL was used in Proxiplate 384 plus white assay plates (PerkinElmer, 6008280). To measure compound inhibition, 100 nL of compound dissolved in DMSO or DMSO alone was preincubated with the HSET and microtubules for 10 min before 3 μM Ultra-Pure ATP was added to start the ATPase reaction for the 3 μM ATP HSET assay. For the 500 μM ATP HSET assay, the addition of 500 μM Ultra-Pure ATP was used. For the Eg5 ATPase assay, 4.8 μM Ultra-Pure ATP was used. All reactions were incubated at 25 °C for 80 min and then stopped by the addition of 5 μL of the ADP-Glo reagent. 10 μL of Kinase Detection Reagent was then added after a further 45 min of incubation. The luminescence was read after 45 min on a PheraStar FSX plate reader (BMG Labtech). The data processing was performed using Dotmatics Studies software package. Percentage inhibition was determined based on normalization to high controls (0% inhibition, all reagents with 100 nL of DMSO alone) and low controls (100% inhibition […], without HSET). The IC50 values for each compound were determined using a four-parameter logistic curve fit of % inhibition versus concentration.

[1] abbreviates: LE = −1.4Log(IC50 [M])/number of non-hydrogen atoms (Table 2).
[2] abbreviates: LLE = −Log(IC50 [M]) – cLogP (MoKa) (Table 2).
[3] abbreviates: preformed microtubules, 3 μM ATP, mean (±SD) n ≥ 3, >200 from a single determination (Table 2), read-out: HSET ADP-Glo IC50.
Where [4] appears, read: preformed microtubules, 3 μM ATP, mean (±SD) n ≥ 3, >200 from a single determination (Table 1), read-out: HSET ADP-Glo IC50.
Setting [5] is: LE = −1.4Log(IC50 [M])/number of non-hydrogen atoms (Table 1).
Setting [6] is: LLE = −Log(IC50 [M]) – cLogP (MoKa) (Table 1).

For the molecule `CCOC(=O)c1sc(NC(=O)CCN(C)C(=O)c2cccc(-c3noc(C)n3)c2)nc1C` [Compound 24, Ethyl 4-Methyl-2-(3-(N-methyl-3-(5-methyl-1,2,4-oxadiazol-3-yl)benzamido)propanamido)thiazole-5-carboxylate], the LE under setting [1] is listed as 0.19. In addition, the LLE under setting [2] was 2.1. For the same molecule, the IC50 under setting [3] was determined as 44.4 µM. The “fold reduction in HSET potency” value (relative to 13) is 700 fold.

On to `CCOC(=O)c1sc(C(=O)NCCNC(=O)c2cccc(-c3noc(C)n3)c2)nc1C` [Compound 25, Ethyl 4-Methyl-2-((2-(3-(5-methyl-1,2,4-oxadiazol-3-yl)benzamido)ethyl)carbamoyl)thiazole-5-carboxylate], for which, under setting [1], the LE worked out at 0.29. Moreover, under setting [2], the LLE is on record as 3.9. The IC50 under setting [3] came out at 0.405 µM. Further, the “fold reduction in HSET potency” value (relative to 13) is “six-fold”.

Regarding `CCNC(=O)c1sc(NC(=O)CCNC(=O)c2cccc(C)c2)nc1C` [Compound 7, N-Ethyl-4-methyl-2-(3-(3-methylbenzamido)propanamido)thiazole-5-carboxamide], the “HSET inhibitory activity (in words)” value is listed as “no activity”. In addition, under setting [4], the IC50 is over 200 µM.

In the case of `CCOC(=O)c1sc(NC(=O)CCCNC(=O)c2cccc(-c3noc(C)n3)c2)nc1C` [Compound 22, Ethyl 4-Methyl-2-(4-(3-(5-methyl-1,2,4-oxadiazol-3-yl)benzamido)butanamido)thiazole-5-carboxylate], the “HSET inhibitory activity (in words)” value is given as “abolished the HSET activity”. Also, the IC50 under setting [3] is over 200 µM.

With `CCOC(=O)c1sc(NC(=O)CCNC(=O)c2cccc(OC)c2)nc1C` [Compound 11, Ethyl 2-(3-(3-Methoxybenzamido)propanamido)-4-methylthiazole-5-carboxylate], the LE under setting [5] was 0.28. For the same molecule, the LLE under setting [6] turned out to be 2.8. Under setting [4], the IC50 came to 3.54 µM.

Turning to `CCOC(=O)c1cnc(NC(=O)CCNC(=O)c2cccc(-c3noc(C)n3)c2)s1` [Compound 19, Ethyl 2-(3-(3-(5-Methyl-1,2,4-oxadiazol-3-yl)benzamido)propanamido)thiazole-5-carboxylate], the inhibition at 4 µM (4μM compound, 3 μM ATP) came out at 50%. The “fold reduction in HSET potency” value (relative to 13) was determined as 65 fold. Where the note is “supplementary CSV, read-out: HSET ADP-Glo IC50”, the IC50 was over 4 µM.

Turning to `CCOC(=O)c1sc(NC(=O)CCNC(=O)C2CCCC(C)C2)nc1C` (centres unmarked) [Compound 10, Ethyl 4-Methyl-2-(3-(3-methylcyclohexane-1-carboxamido)propanamido)thiazole-5-carboxylate], the “HSET inhibitory activity (in words)” value was “ablated the activity”. In addition, under setting [4], the IC50 is over 200 µM.

Turning to `CCOC(=O)c1sc(NC(=O)CCNC(=O)c2ccccc2C)nc1C` [Compound 3, Ethyl 4-methyl-2-(3-(2-methylbenzamido)propanamido)thiazole-5-carboxylate], where the note is “200μM compound, 3 μM ATP, single determination”, the inhibition at 200 µM stood at 52%. In addition, the “fold reduction in HSET potency” value (relative to 2) is “seventy-fold”.

`CCOC(=O)c1sc(NC(=O)CCNC(=O)c2ccc(C)cc2)nc1C` [Compound 4, Ethyl 4-Methyl-2-(3-(4-methylbenzamido)propanamido)thiazole-5-carboxylate]: the IC50 by setting is: (3 μM ATP, curve plateaued, read-out: mean concentration observed at 50% inhibition (HSET ADP-Glo)) 13 µM; under setting [4], 4.73 µM. Further, under setting [5], the LE is recorded as 0.29. For the same molecule, the LLE under setting [6] is listed as 2.2.

With `CCOC(=O)c1sc(NC(=O)C[C@H](C)NC(=O)c2cccc(-c3noc(C)n3)c2)nc1C` [Compound 30, Ethyl 4-Methyl-2-[[(3S)-3-[[3-(5-methyl-1,2,4-oxadiazol-3-yl)benzoyl]amino]butanoyl]amino]thiazole-5-carboxylate], under setting [1], the LE is on record as 0.32. Moreover, under setting [2], the LLE is 4.1. Moreover, the IC50 under setting [3] stood at 0.061 µM.

`CCOC(=O)c1sc(NC(=O)CCNC(C)=O)nc1C` [Compound 8, ethyl 2-(3-acetamidopropanamido)-4-methylthiazole-5-carboxylate]: the “HSET inhibitory activity (in words)” value was “ablated the activity”. The IC50 under setting [4] is over 200 µM.

`CCOC(=O)c1ccc(NC(=O)CCNC(=O)c2cccc(-c3noc(C)n3)c2)nc1C` [Compound 27, Ethyl 2-Methyl-6-(3-(3-(5-methyl-1,2,4-oxadiazol-3-yl)benzamido)propanamido)nicotinate]: the LE under setting [1] came out at 0.22. For the same molecule, under setting [2], the LLE was determined as 2.5. Further, under setting [3], the IC50 stood at 11.5 µM. Further, the “fold reduction in HSET potency” value (relative to 13) is “greater than 180 fold”.

`CCOC(=O)c1sc(NC(=O)CCNC(=O)c2cccc(Cl)c2)nc1C` [Compound 6, Ethyl 2-(3-(3-Chlorobenzamido)propanamido)-4-methylthiazole-5-carboxylate]: the “HSET inhibitory activity (in words)” value is “ablated the activity”. Moreover, the IC50 under setting [4] is over 200 µM.

For `CCOC(=O)c1sc(NC(=O)C[C@@H](C)NC(=O)c2cccc(-c3noc(C)n3)c2)nc1C` [Compound 31, Ethyl 4-Methyl-2-[[(3R)-3-[[3-(5-methyl-1,2,4-oxadiazol-3-yl)benzoyl]amino]butanoyl]amino]thiazole-5-carboxylate], the LE under setting [1] was 0.29. Further, the LLE under setting [2] was 3.4. The IC50 under setting [3] came to 0.288 µM.

As to `CCOC(=O)c1sc(NC(=O)CNC(=O)c2cccc(-c3noc(C)n3)c2)nc1C` [Compound 21, Ethyl 4-Methyl-2-(2-(3-(5-methyl-1,2,4-oxadiazol-3-yl)benzamido)acetamido)thiazole-5-carboxylate], the “HSET inhibitory activity (in words)” value is “abolished the HSET activity”. For the same molecule, the IC50 under setting [3] was over 200 µM.

Regarding `CCOC(=O)c1sc(NC(=O)CCNC(=O)c2cccc(-c3ccccc3)c2)nc1C` [Compound 12, Ethyl 2-(3-([1,1′-Biphenyl]-3-carboxamido)propanamido)-4-methylthiazole-5-carboxylate], the LE under setting [5] stood at 0.25. In addition, under setting [6], the LLE is reported as 1.2. Also, under setting [4], the IC50 came to 2.44 µM.

For the molecule `CCOC(=O)c1nc(NC(=O)CCNC(=O)c2cccc(-c3noc(C)n3)c2)cn1C` [Compound 29, Ethyl 1-Methyl-4-(3-(3-(5-methyl-1,2,4-oxadiazol-3-yl)benzamido)propanamido)-1H-imidazole-2-carboxylate], the “HSET inhibitory activity (in words)” value is recorded as “no HSET inhibition”. The IC50 under setting [3] was over 200 µM.

For `CCOC(=O)c1sc(NC(=O)CCNC(=O)c2ccccc2)nc1C` [Compound 9, Ethyl 2-(3-Benzamidopropanamido)-4-methylthiazole-5-carboxylate], the “HSET inhibitory activity (in words)” value is reported as “ablated the activity”. Under setting [4], the IC50 was over 200 µM.

`CCOC(=O)c1sc(NC(=O)CCNC(=O)c2cccc(-c3nc(C)no3)c2)nc1C` [Compound 17, Ethyl 4-Methyl-2-(3-(3-(3-methyl-1,2,4-oxadiazol-5-yl)benzamido)propanamido)thiazole-5-carboxylate]: the LE under setting [5] is 0.32. The LLE under setting [6] came out at 4.3. Moreover, under setting [4], the IC50 was determined as 0.101 µM.

Take `CCOC(=O)c1sc(NC(=O)CCNC(=O)c2cccc(-c3noc(CC)n3)c2)nc1C` [Compound 14, Ethyl 2-(3-(3-(5-Ethyl-1,2,4-oxadiazol-3-yl)benzamido)propanamido)-4-methylthiazole-5-carboxylate]: the LE under setting [5] worked out at 0.25. Also, the LLE under setting [6] came out at 2.8. The IC50 under setting [4] was 2.1 µM. Moreover, the “fold reduction in HSET potency” value (relative to 13) was determined as 33 fold.
